The text below walks through data of PMC11940505, “Antivirulence Properties of Kuraridin Against Methicillin-Resistant Staphylococcus aureus (MRSA)” (Biomedicines, 2025).

In this assay the target is T1, Sortase A (SrtA) (Staphylococcus aureus, UniProt Q2FV99).
T1 construct: recombinant SrtA enzyme (BPS Bioscience)
In words: fluorescence cleavage assay of Abz-LPETG-K(Dnp)-NH2 with recombinant SrtA. The assay is classed as biochemical.

T1 sequence (Q2FV99 whole entry): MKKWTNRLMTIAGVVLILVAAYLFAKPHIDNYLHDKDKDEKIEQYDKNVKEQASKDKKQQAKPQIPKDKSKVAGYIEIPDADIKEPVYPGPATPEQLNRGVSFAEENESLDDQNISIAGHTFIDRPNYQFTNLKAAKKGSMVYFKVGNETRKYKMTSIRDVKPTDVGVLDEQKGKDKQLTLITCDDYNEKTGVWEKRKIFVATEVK

As for `C=C(C)[C@H](CC=C(C)C)Cc1c(O)cc(OC)c(C(=O)/C=C/c2ccc(O)cc2O)c1O` [Kuraridin, (E)-1-[2,4-dihydroxy-6-methoxy-3-(5-methyl-2-prop-1-en-2-ylhex-4-enyl)phenyl]-3-(2,4-dihydroxyphenyl)prop-2-en-1-one], the “fluorescence cleavage assay of Abz-LPETG-K(Dnp)-NH2 with recombinant SrtA” value was “LogIC50 1.699 ± 0.055”.
